14 molecules from paper PMC12133982, “Predominant T-cell epitopes of SARS-CoV-2 restricted by multiple prevalent HLA-B and HLA-C allotypes in Northeast Asia” (Frontiers in Immunology, 2025) can be followed below.

In assay [1] the target is HLA-B5801 (Homo sapiens, UniProt P01889, A329T/C349S/D201E/D98Y/E176V/E187L/E204Q/E69T/G107R/I218V/I90N/K202T/L105A/L119I/N104I/N87E/Q89R/Q94S/R106L/R155S/R180L/R86G/S101N/S121R/S35A/S48A/T118I/V127L/V306I/V36M/Y140S/Y91M). Kind of assay: Competitive peptide binding assay, CIR-B5801. The following applies: HMy2.CIR-B5801 cells, reference Cy5-[…], class from inhibition at 5 and 15 μM, flow cytometry MFI; read-out: Binding affinity with HLA-B5801. As for the experimental part: (§1) Then, competitive peptide binding assays were performed.
In general terms: Flow cytometry measures light scatter and fluorescence of single cells or particles in a stream.

The target of assay [2] is HLA-B1502 (Homo sapiens, UniProt P01889, A329T/A93T/A95T/C349S/D201E/D98Y/E187L/E204Q/E69M/E70A/H137Y/K202T/L119I/Q94N/R155S/R180L/S121R/S35A/S48A/T118I/V306I/V36M/Y140S/Y91S). Put plainly: Competitive peptide binding assay, CIR-B1502. The note with it: HMy2.CIR-B1502 cells, reference Cy5-[…], class from inhibition at 5 and 15 μM, flow cytometry MFI; read-out: Binding affinity with HLA-B1502. Here is the method:
as §1

In assay [3] the target is HLA-B1301 (Homo sapiens, UniProt P01889, A65T/A93T/A95T/D138N/D201E/D98Y/E176V/E204Q/E69M/E70A/G107R/K202T/L105A/L119I/N104T/N87E/Q94N/R106L/R155S/R169L/R180L/S101N/S121R/S35A/S48T/T118I/V127L/V36M/Y140L/Y91S). Kind of assay: Competitive peptide binding assay, CIR-B1301. The note with it: HMy2.CIR-B1301 cells, reference Cy5-[…], class from inhibition at 5 and 15 μM, flow cytometry MFI; read-out: Binding affinity with HLA-B1301. Here is the method:
as §1

Assay [4] concerns the target HLA-B1501 (Homo sapiens, UniProt P01889, A329T/A93T/A95T/C349S/D201E/D98Y/E187L/E204Q/E69M/E70A/K202T/N87E/Q94N/R155S/R180W/S121R/S35A/S48A/V306I/V36M/Y140S/Y91S). Kind of assay: Competitive peptide binding assay, CIR-B1501. The following applies: HMy2.CIR-B1501 cells, reference Cy5-[…], class from inhibition at 5 and 15 μM, flow cytometry MFI; read-out: Binding affinity with HLA-B1501. As for the experimental part:
as §1

The target in assay [5] is HLA-B3501 (Homo sapiens, UniProt P01889, A329T/A93T/A95T/C349S/D201E/D98Y/E176V/E187L/E204Q/E69T/I218V/K202T/L119I/Q94N/R155S/R180L/S121R/S35A/S48A/T118I/V127L/V306I/V36M/Y140S/Y91F). Put plainly: Competitive peptide binding assay, CIR-B3501. The following applies: HMy2.CIR-B3501 cells, reference Cy5-[…], class from inhibition at 5 and 15 μM, flow cytometry MFI; read-out: Binding affinity with HLA-B3501. Here is the method: as §1

Assay [6] has as its target HLA-B4601 (Homo sapiens, UniProt P01889, A329T/A93R/C349S/D201E/E100V/E187L/E204Q/E69M/E70A/I90K/K202T/N87E/R155S/R180W/S121R/S35A/S48A/V306I/V36M/Y140S). Kind of assay: Competitive peptide binding assay, CIR-B4601. The following applies: for IC50: HMy2.CIR-B4601 cells, reference Cy5-[…], class from inhibition at 5 and 15 μM, flow cytometry MFI, read-out: Binding affinity with HLA-B4601; for inhibition at 5 µM: read-out: Inhibition % of Cy5-reference peptide binding, CIR-B4601, 5μM peptide; for inhibition at 15 µM: read-out: Inhibition % of Cy5-reference peptide binding, CIR-B4601, 15μM peptide. As for the experimental part: as §1

Assay [7] deals with HLA-C0602 (Homo sapiens, UniProt P10321, A176E/A330V/C350S/L171W/L180W/L218V/M285V/M309V/M331V/N104K/P208H/Q277E/Q291P/R121W/S101N/S123Y/S297R/T329A/T363A/V319A/V328M). Kind of assay: Competitive peptide binding assay, CIR-C0602.
Assay [8] addresses HLA-C0102 (Homo sapiens, UniProt P10321, A176E/A330V/A35S/A97T/C350S/D114A/D33F/L171W/L180R/L218V/M285V/M309V/M331V/P208H/Q277E/Q291P/R121W/R243W/R30K/S123C/S140Y/S297R/T329A/T363A/V272M/V319A). Put plainly: Competitive peptide binding assay, CIR-C0102. As for the experimental part: as §1
[9] abbreviates: read-out: Inhibition % of Cy5-reference peptide binding.

Peptide text beside a SMILES is read from it.

As to `CC(C)C[C@H](NC(=O)[C@@H](N)CCC(N)=O)C(=O)N[C@H](C(=O)N1CCC[C@H]1C(=O)N[C@H](C(=O)N[C@@H](Cc1c[nH]c2ccccc12)C(=O)N[C@@H](CCCNC(=N)N)C(=O)N[C@H](C(=O)N[C@@H](Cc1ccc(O)cc1)C(=O)O)C(C)C)[C@@H](C)O)[C@@H](C)O` [Epitope Y175] (H-QLTPTWRVY-OH; N-terminus and C-terminus assumed), the IC50 in assay [1] is < 5 µM; in assay [2], 5 to 15 µM; in assay [3] it was > 15 µM; in assay [4] it was > 15 µM; in assay [5] it was > 15 µM.

`CC[C@H](C)[C@H](N)C(=O)N[C@@H](C)C(=O)N[C@@H](CC(N)=O)C(=O)N[C@@H](CCC(N)=O)C(=O)N[C@@H](Cc1ccccc1)C(=O)N[C@@H](CC(N)=O)C(=O)N[C@@H](CO)C(=O)N[C@@H](C)C(=O)N[C@H](C(=O)O)[C@@H](C)CC` [Epitope Y283] (H-IANQFNSAI-OH; N-terminus and C-terminus assumed): the IC50 in assay [2] is > 15 µM; in assay [3], > 15 µM; in assay [4] it was 5 to 15 µM.

`CC(C)C[C@H](NC(=O)[C@@H](NC(=O)[C@H](CCCNC(=N)N)NC(=O)[C@H](CO)NC(=O)[C@@H](NC(=O)[C@H](C)NC(=O)[C@@H](N)C(C)C)[C@@H](C)O)[C@@H](C)O)C(=O)N[C@@H](CO)C(=O)N[C@@H](Cc1ccc(O)cc1)C(=O)O` [Epitope Y158] (H-VATSRTLSY-OH; N-terminus and C-terminus assumed): the IC50 in assay [1] was > 15 µM; in assay [2], 5 to 15 µM; in assay [4], < 5 µM; in assay [5], 5 to 15 µM.

With `CC(C)C[C@H](NC(=O)[C@H](CC(C)C)NC(=O)[C@H](CC(C)C)NC(=O)[C@H](C)NC(=O)[C@H](CC(C)C)NC(=O)[C@H](C)NC(=O)[C@H](C)NC(=O)[C@H](CC(=O)O)NC(=O)CN)C(=O)O` [Epitope Y65] (H-GDAALALLL-OH; N-terminus and C-terminus assumed), the IC50 was 5 to 15 µM in assay [1], < 5 µM in assay [3], 5 to 15 µM in assay [4] and > 15 µM in assay [5].

`CC[C@H](C)[C@H](NC(=O)[C@H](CCC(N)=O)NC(=O)[C@@H](N)CC(C)C)C(=O)N1CCC[C@H]1C(=O)N[C@@H](Cc1ccccc1)C(=O)N[C@@H](C)C(=O)N[C@@H](CCSC)C(=O)N[C@@H](CCC(N)=O)C(=O)N[C@@H](CCSC)C(=O)O` [Epitope Y81] (H-LQIPFAMQM-OH; N-terminus and C-terminus assumed): in assay [6], the IC50 was > 15 µM, the inhibition at 5 µM worked out at 9.21% and the inhibition at 15 µM amounted to 44%. In assay [3], the IC50 was < 5 µM. Also, the IC50 in assay [4] was > 15 µM.

Regarding `CC[C@H](C)[C@H](N)C(=O)N[C@H](C(=O)N[C@@H](CC(=O)O)C(=O)N[C@@H](C)C(=O)N[C@H](C(=O)N[C@@H](CC(=O)O)C(=O)N[C@@H](CS)C(=O)N[C@@H](C)C(=O)N[C@@H](CC(C)C)C(=O)O)C(C)C)[C@@H](C)O` [Epitope M161, ITDAVDCAL] (H-ITDAVDCAL-OH; N-terminus and C-terminus assumed), in assay [7], the IC50 is > 15 µM.

For `CC(C)C[C@H](NC(=O)[C@H](C)NC(=O)[C@@H](NC(=O)[C@@H](N)CC(C)C)[C@@H](C)O)C(=O)N[C@@H](CCCNC(=N)N)C(=O)N[C@@H](CC(C)C)C(=O)N[C@@H](CS)C(=O)N[C@@H](C)C(=O)N[C@@H](Cc1ccc(O)cc1)C(=O)O` [Epitope M51] (H-LTALRLCAY-OH; N-terminus and C-terminus assumed), the IC50 in assay [8] (HMy2.CIR-C0102 cells, reference Cy5-[…], class from inhibition at 5 and 15 μM, flow cytometry MFI, read-out: Binding affinity with HLA-C0102) was 5 to 15 µM; in assay [7], < 5 µM. In addition, the inhibition at 5 µM in assay [8] (setting [9]) was 42.9%. Moreover, in assay [8] (setting [9]), the inhibition at 15 µM was determined as 77.6%.

`CC(C)[C@H](NC(=O)CNC(=O)[C@H](Cc1c[nH]cn1)NC(=O)[C@@H]1CCCN1C(=O)[C@H](C)NC(=O)[C@H](CO)NC(=O)[C@@H](N)CCC(N)=O)C(=O)N[C@H](C(=O)N[C@@H](Cc1ccccc1)C(=O)O)C(C)C` [Epitope Y146] (H-QSAPHGVVF-OH; N-terminus and C-terminus assumed): the figures for the IC50 in assay [2], in assay [4] and in assay [5] were 5 to 15 µM, < 5 µM and > 15 µM, respectively.

As to `CC(C)[C@H](NC(=O)[C@H](Cc1ccc(O)cc1)NC(=O)[C@H](CCC(=O)O)NC(=O)[C@H](Cc1ccccc1)NC(=O)[C@@H](N)[C@@H](C)O)C(=O)N[C@@H](CO)C(=O)N[C@@H](CCC(N)=O)C(=O)N1CCC[C@H]1C(=O)N[C@@H](Cc1ccccc1)C(=O)O` [Epitope M180] (H-TFEYVSQPF-OH; N-terminus and C-terminus assumed), the IC50 in assay [7] was > 15 µM.

`CC[C@H](C)[C@H](NC(=O)[C@H](C)NC(=O)[C@@H](N)CC(C)C)C(=O)N[C@@H](CC(C)C)C(=O)N[C@H](C(=O)N[C@@H](C)C(=O)N[C@@H](CC(C)C)C(=O)N[C@@H](CCCNC(=N)N)C(=O)N[C@@H](CC(C)C)C(=O)O)[C@@H](C)O` [Epitope Y7] (H-LAILTALRL-OH; N-terminus and C-terminus assumed): the IC50 in assay [6] was > 15 µM; in assay [5] it was 5 to 15 µM.

`CC[C@H](C)[C@H](NC(=O)[C@@H](NC(=O)[C@H](CC(C)C)NC(=O)[C@H](CCC(=O)O)NC(=O)[C@H](CO)NC(=O)[C@H](CCC(=O)O)NC(=O)[C@H](CC(C)C)NC(=O)[C@H](CC(C)C)NC(=O)[C@@H]1CCCN1C(=O)[C@@H](N)CCCNC(=N)N)C(C)C)C(=O)O` [Epitope Y43] (H-RPLLESELVI-OH; N-terminus and C-terminus assumed): in assay [3], the IC50 lay in the range of 5 to 15 µM.

In turn, `CC(C)C[C@H](NC(=O)[C@@H](NC(=O)[C@@H]1CCCN1C(=O)[C@H](CC(N)=O)NC(=O)[C@H](CC(=O)O)NC(=O)[C@H](Cc1ccccc1)NC(=O)[C@H](CCCNC(=N)N)NC(=O)[C@@H](N)CCCCN)C(C)C)C(=O)N1CCC[C@H]1C(=O)N[C@@H](Cc1ccccc1)C(=O)O` [Epitope M125] (H-KRFDNPVLPF-OH; N-terminus and C-terminus assumed) gave an IC50 in assay [7] of 5 to 15 µM.

Take `CC[C@H](C)[C@H](NC(=O)CNC(=O)[C@H](CC(=O)O)NC(=O)[C@H](CCCCN)NC(=O)[C@H](CC(N)=O)NC(=O)[C@H](C)NC(=O)CNC(=O)[C@H](Cc1ccc(O)cc1)NC(=O)[C@@H]1CCCN1C(=O)[C@@H](N)CC(C)C)C(=O)O` [Epitope Y273] (H-LPYGANKDGI-OH; N-terminus and C-terminus assumed): the IC50 in assay [6] is > 15 µM; in assay [1] it was > 15 µM; in assay [2], 5 to 15 µM; in assay [4], > 15 µM. Further, the inhibition at 5 µM in assay [6] is 11.6%. Besides, the inhibition at 15 µM in assay [6] came out at 31%.

For the molecule `CC(C)[C@H](NC(=O)CNC(=O)[C@H](CCC(=O)O)NC(=O)[C@H](CCCNC(=N)N)NC(=O)[C@@H]1CCCN1C(=O)[C@H](Cc1ccccc1)NC(=O)[C@H](Cc1c[nH]cn1)NC(=O)[C@H](C)N)C(=O)N[C@@H](Cc1ccccc1)C(=O)O` [Epitope M157] (H-AHFPREGVF-OH; N-terminus and C-terminus assumed), the IC50 in assay [7] is > 15 µM.

A word on the inhibition: it is the percentage by which the read-out fell short of the control.
